Measured values taken from article PMC7318243, “Computationally Empowered Workflow Identifies Novel Covalent Allosteric Binders for KRAS^G12C” (Chemmedchem, 2020).

Tests used:
[1] = target: T1, KRAS^G12C (recombinant KRAS mutant G12C, C51S, C80L, C118S) (Homo sapiens, UniProt P01116, C118S/C51S/C80L/G12C); assay: Covalent binding assay by mass spectrometry (intact mass, % covalent adduct); details: for MS assay [% binding] (KRAS^G12C bound fraction): 25 µM protein, 25 µM compound, room temperature, 2 h
T1 construct: made in house
Experimental: (§1) One of the most synthetically accessible compounds, 1,6‐naphthyridin‐5(6H)‐one (1), was prepared (Table 1; Scheme S1). Structurally close to 1, isoquinolin‐1(2H)‐one 2 derivatives were also considered for the exploration of structure‐activity relationships (SAR). To measure the proportion of inhibitor reacting with Cys12 of the KRAS^G12C mutant, the bound/unbound protein ratio was quantified by mass spectrometry (MS). Then, the inhibition potency of these compounds towards KRAS^G12C was evaluated in biochemical assays measuring the activation of GDP‐bound KRAS^G12C or KRAS^WT by SOS1.19 […]
3.4 Covalent binding assay by mass spectrometry
The percentage of covalent adduct formation at KRAS G12C was determined by intact mass determination. To this end, 25 µM recombinant KRAS mutant (G12C , C51S, C80L, C118S) was incubated with 25 µM compound (1% v/v DMSO final concentration) in 50 mM Tris, pH 8.0, 50 mM NaCl at room temperature for 2 h. Reaction mixture (20 µL) was acidified by addi tion of 4% v/v TFA (4 µL). LC-MS analysis was performed using a Waters SYNAPT G2 -S quadrupole time -of-flight mass spectrometer connected to a Waters nanoA CQUITY UPLC system. Samples were loaded onto a 2.1 × 5 mm MassPrep C4 guard column (Waters) and desalted with a short gradient (3 min) of increasing concentration of acetonitrile at a flow rate of 100 µL/min. Spectra were analyzed by using MassLynx v4.1 software and deconvoluted with the MaxEnt1 algorithm. Percent conversion was determined by the ratio of signal intensities of […] and KRASG12C + inhibitor. […]

KRAS^G12C = target: T2, KRAS^G12C (Homo sapiens, UniProt P01116, G12C); assay: Biochemical assay: KRAS^G12C activation by SOS1CAT (HTRF, fluorescent GTP loading); details: for IC50: 180 min pre-incubation with KRAS before addition of SOS1
T2 construct: KRASG12C (aa 1–169, G12C) were produced for the biochemical assay; made in house
Experimental: as §1
(§2) 3.3 Biochemical activity assays
(§3) Measurement of (i) KRASG12C activation by SOS1CAT and (ii) wild-type KRAS activation by SOS1CAT was performed following the previously described protocol, [19] with a pre-incubation time of the test compound with KRAS proteins extended to 180 min before addi tion of SOS1.
(§4) This assay quantifies SOS1 CAT mediated loading of KRAS G12C–GDP with a fluorescent GTP analogue. Detection of successful loading was achieved by measuring resonance energy transfer from anti-GST-terbium (FRET donor) bound to GST -KRASG12C to the loaded fluorescent GTP analogue (FRET acceptor). The fluorescent GTP analogue EDA –GTP–DY-647P1 [2'/3'-O-(2-aminoethyl-carbamoyl)guanosine-5'-triphosphate labelled with DY-647P1 (Dyomics GmbH, Germany)] was synthesized by Jena Bioscience (Germany) a nd supplied as a 1 mM aqueous solution. A KRASG12C working solution was prepared in assay buffer [10 mM HEPES pH 7.4 (AppliChem), 150 mM NaCl (Sigma), 5 mM MgCl2 (Sigma), 1 mM DTT (Thermo Fisher), 0.05% BSA Fraction V pH 7.0 (ICN Biomedicals), 0.0025% (v/v) Igepal (Sigma)] containing 100 nM GST-KRASG12C and 2 nM anti-GST-terbium (Cisbio, France). A SOS1 CAT working solution was prepared in an assay buffer containing 20 nM SOS1CAT and 200 nM EDA–GTP–DY-647P1. An inhibitor control solution was prepared in an assay buffer containing 200 nM EDA–GTP–DY-647P1 without […]
SOS1CAT. All steps of the assay were performed at 20 °C. A volume of 2.5 µL of the KRASG12C working solution was added to all wells of the test plate using a Multidrop dispenser (Thermo LabSystems). After 180 min, 2.5 µL of the SOS1CAT working solution was added to all wells, except for the inhibitor control solution wells. After 30 min incubation, HTRF was measured. […]
(§5) SYNAPT G2-S quadrupole time-of-flight mass spectrometer connected to a Waters nanoAcquity UPLC system. Samples were loaded on a 2.1 x 5 mm mass prep C4 guard column (Waters) and desalted with a short grad ient (3 min) of increasing concentrations of acetonitrile at a flow rate of 100 µL/min. Spectra were analyzed by using MassLynx v4.1 software and deconvoluted with the MaxEnt1 algorithm. Percent of conversion was determined by the ratio of signal intensiti es of apo-KRAS and KRAS + inhibitor.

KRAS^WT = target: T3, KRAS^WT (Homo sapiens, UniProt P01116); assay: Biochemical assay: KRAS^WT activation by SOS1CAT (HTRF, fluorescent GTP loading); details: 180 min pre-incubation with KRAS before addition of SOS1
T3 construct: The proteins KRASWT (aa 1–169, wild type), SOS1CAT (aa 564–); made in house
Experimental: as §1, §2, §3, §4
SOS1CAT. All steps of the assay were performed at 20 °C. A volume of 2.5 µL of the KRASG12C working solution was added to all wells of the test plate using a Multidrop dispenser (Thermo LabSystems). After 180 min, 2.5 µL of the SOS1CAT working solution was added to all wells, except for the inhibitor control solution wells. After 30 min incubation, HTRF was measured.
In the KRASWT activation by SOS1cat assay, human SOS1CAT mediated loading of GST-KRASWT– GDP was quantified with a fluorescent GTP analogue. The assay was performed as described above for the KRASG12C activation. […]
as §5

Compound	MS assay [% binding] (KRAS^G12C bound fraction) [1]	IC50 (KRAS^G12C)	IC50 (KRAS^WT)	Ability to bind / react with Cys12 of KRAS^G12C, in words [1]	KRAS^G12C activity, in words (KRAS^G12C)
C=CC(=O)N1CCC(c2cc3cc(Cl)c(-c4c(O)cccc4F)cc3c(=O)[nH]2)C1 (stereo not drawn) [Compound 7, 6-Chloro-7-(2-fluoro-6-hydroxyphenyl)-3-[1-(prop-2-enoyl)pyrrolidin-3-yl]isoquinolin-1(2H)-one]	51%	14.6 µM	> 20 µM		
C=CC(=O)N1CCC(c2cc3ccc(-c4c(O)cccc4F)cc3c(=O)n2C)C1 (stereo not drawn) [Compound 10]	11%	> 20 µM	> 20 µM	inability to bind KRAS^G12C	inactive
C=CC(=O)N1CCC(c2cc3cc(O)c(-c4ncccc4F)cc3c(=O)[nH]2)C1 (stereo not drawn) [Compound 12]	0%			unable to react with Cys12 of KRAS^G12C	
C=CC(=O)N1CCC(c2cc3ccc(-c4ccc(F)cc4F)cc3c(=O)[nH]2)C1 (stereo not drawn) [Compound 3, 7-(2,4-Difluorophenyl)-3-[1-(prop-2-enoyl)pyrrolidin-3-yl]isoquinolin-1(2H)-one]	34%	5 µM	> 20 µM		
C=CC(=O)N1CCC(c2cc3ccc(-c4cc(F)cc(F)c4)cc3c(=O)[nH]2)C1 (stereo not drawn) [Compound 4, 7-(3,5-Difluorophenyl)-3-[1-(prop-2-enoyl)pyrrolidin-3-yl]isoquinolin-1(2H)-one]	0%	> 20 µM	> 20 µM		
C=CC(=O)N1CCC(c2nc3ccc(-c4c(O)cccc4F)cc3c(=O)[nH]2)C1 (stereo not drawn) [Compound 11, 6-(2-Fluoro-6-hydroxyphenyl)-2-[1-(prop-2-enoyl)pyrrolidin-3-yl]quinazolin-4(3H)-one]	59%	4.9 µM	> 20 µM		
C=CC(=O)N1CCCC(c2cc3ccc(-c4c(O)cccc4F)cc3c(=O)[nH]2)C1 (stereo not drawn) [Compound 9]	0%	> 20 µM	> 20 µM		inactive
C=CC(=O)N1CCC(c2cc3ccc(-c4c(O)cccc4F)cc3c(=O)[nH]2)CC1 [Compound 8]	0%	> 20 µM	> 20 µM		inactive
C=CC(=O)N1CCC(c2cc3ccc(-c4cccc5ncccc45)cc3c(=O)[nH]2)C1 (stereo not drawn) [Compound 6, 3-[1-(Prop-2-enoyl)pyrrolidin-3-yl]-7-(quinolin-5-yl)isoquinolin-1(2H)-one]	20%	> 16 µM	> 20 µM		
C=CC(=O)N1CCC(c2cc3ccc(-c4ccccc4CC)cc3c(=O)[nH]2)C1 (stereo not drawn) [Compound 5, 7-(2-Ethylphenyl)-3-[1-(prop-2-enoyl)pyrrolidin-3-yl]isoquinolin-1(2H)-one]	60%	8 µM	> 20 µM		
